Solubility data for one compound are collected here from patent publication US6648952B1, “Anthrapyridone compound, aqueous magenta ink compositions and ink-jet recording method” (Nippon Kayaku Kabushiki Kaisha, priority 1999, dated 2003).

This series is described as follows: Solubility of the dye in pure water. The following applies: pure water (ion exchanged water), 25° C. The format is physicochemical.

Counter-ions that a name gives are not always drawn.

For `CC(C)(C)CC(C)(C)c1ccc(Oc2cc(Nc3ccc(S(=O)(=O)O)cc3)c3c4c(c(C(=O)c5ccccc5)c(=O)[nH]c24)-c2ccccc2C3=O)c(S(=O)(=O)O)c1` [Example M1, sodium salt of anthrapyridone disulfonic acid of Formula (1)], the solubility (commonly the dissolved amount per volume that the medium holds) was determined as 100 mg/mL.
